# Experimental data published in US9790211B2, “5-amino-quinoline-8-carboxamide derivatives as 5-HT4 receptor agonists” (SUVEN LIFE SCIENCES LIMITED, priority 2013, dated 2017).
# What was measured:
# [1] = target: T1, recombinant human 5-HT4 receptor (Homo sapiens, UniProt Q13639); experiment: Determination of EC50 values for 5-HT4 receptor (CHO cells, pCRE-Luc reporter); assay type: cell-based; details: for Emax: CHO; for EC50: CHO cells, human 5-HT4 receptor, luciferase reporter, 4 hours incubation
# T1 construct: expressed in transfected cells
# T1 sequence (Q13639 whole entry): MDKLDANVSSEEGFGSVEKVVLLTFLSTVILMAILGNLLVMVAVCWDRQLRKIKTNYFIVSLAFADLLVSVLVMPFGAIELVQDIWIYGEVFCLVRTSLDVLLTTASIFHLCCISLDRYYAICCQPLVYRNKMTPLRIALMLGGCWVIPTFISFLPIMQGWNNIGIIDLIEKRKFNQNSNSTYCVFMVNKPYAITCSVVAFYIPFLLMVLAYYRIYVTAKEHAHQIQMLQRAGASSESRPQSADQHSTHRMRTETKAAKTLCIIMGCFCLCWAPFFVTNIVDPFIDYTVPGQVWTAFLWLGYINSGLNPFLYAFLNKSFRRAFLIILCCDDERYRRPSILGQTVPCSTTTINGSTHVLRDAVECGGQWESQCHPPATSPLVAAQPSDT
# Description: Determination of EC50 Values for 5-HT4 Receptor
# A stable CHO cell line expressing recombinant human 5-HT4 receptor and pCRE-Luc reporter system was used for cell-based assay. The assay offers a non-radioactive based approach to determine binding of a compound to GPCRs. In this specific assay, the level of intracellular cyclic AMP, which is modulated by activation, or inhibition of the receptor is measured. The recombinant cells harbor luciferase reporter gene under the control of cAMP response element.
# The above cells were grown in 96 well clear bottom white plates in Hams F12 medium containing 10% fetal bovine serum (FBS). Prior to the addition of compounds or standard agonist, cells were serum starved overnight. Increasing concentrations of test compounds were added in OptiMEM medium to the cells. The incubation was continued at 37° C. in CO2 incubator for 4 hours. Medium was removed and cells were washed with phosphate buffered saline. The cells were lysed and luciferase activity was measured in a Luminometer. Luminescence units were plotted against the compound concentrations using Graphpad software.
# [2] = Rodent pharmacokinetic study; assay type: in vivo, Male wistar rats; details: plasma, Wistar/Male rat; for bioavailability: 3 mg/kg oral vs 1 mg/kg intravenous
# Description: Male wistar rats (225±25 grams) were used as experimental animals. Three to five animals were housed in each cage. Two days prior to dosing day, male wistar rats (225-250 grams) were anesthetized with isoflurane for surgical placement of jugular vein catheter. Animals were fasted over night before oral dosing (p.o) and food pellets were allowed 2 hours post dosing, whereas during intravenous dosing food and water were provided as ad libitum. Three rats were dosed with compounds of formula (I) (3 mg/kg) orally and intravenously (1 mg/kg).
# At each time point blood was collected through jugular vein and immediately replenish with an equivalent volume of normal saline from freely moving rats. Collected blood was transferred into a labeled eppendr off containing 10 μL of heparin as anticoagulant. Typically blood samples were collected as following time points: Pre dose, 0.08 (only i.v.), 0.25, 0.5, 1, 2, 4, 6, 8, and 24 hours post dose (n=3). Blood was centrifuged at 4000 rpm for 10 minutes. Plasma was prepared and stored frozen at −20° C. until analysis. The concentrations of the compounds of formula (I) were quantified in plasma by qualified LC-MS/MS method using suitable extraction technique. The compounds of formula (I) were quantified in the calibration range around 2-2000 ng/mL in plasma. Study samples were analyzed using calibration samples in the batch and quality control samples spread across the batch.
# Pharmacokinetic parameters Cmax, Tmax, AUC1, T1/2 and Bioavailability were calculated by non-compartmental model using standard non-coinpartmental model by using WinNonLin 5.0.1 or Phoenix WinNonlin 6.2 version Software package.
# [3] = Rodent brain penetration study; assay type: in vivo, Male Wistar rats; details: male, Wistar, rat, brain, po, 3 mg/kg, 3 mg/kg oral (gavage), read-out: Single dose Brain Penetration (Cb/Cp)
# Description: Male Wistar rats (225±25 grams) were used as experimental animals. Three animals were housed in each cage. Animals were given water and food ad libitum throughout the experiment and maintained on a 12 hours light/dark cycle. Brain penetration was determined in discrete manner in rats. One day prior to dosing day, male wistar rats (225-250 grams) were acclimatized. After acclimatization the rats were grouped according to their weight. In each group, 3 animals were kept in individual cage and allowed free access to food and water. At each time point (0.50, 1, and 2 hours) n=3 animals were used. The compounds of formula (I) were suitably preformulated and administered orally at (free base equivalent) 3 mg/kg. Blood samples were removed via, cardiac puncture by using isoflurane anesthesia. The animals were sacrificed to collect brain tissue. Plasma was separated and brain samples were homogenized and stored frozen at −20° C. until analysis. The concentrations of the compounds of formula (I) in plasma and brain were determined using LC-MS/MS method. The compounds of formula (I) were quantified in plasma and brain homogenate by qualified LC-MS/MS method using suitable extraction technique. The compounds of formula (I) were quantified in the calibration range of 1-500 ng/mL in plasma and brain homogenate. Study samples were analyzed using calibration samples in the batch and quality control samples spread across the batch. Extent of brain-plasma ratio was calculated (Cb/Cp).
# Male Wistar rats = experiment: Object recognition task model; assay type: in vivo; details: dose mg/kg: Ex 1 0.1, Ex 2 0.03, Ex 4 0.03, Ex 13 1, Ex 23 0.01, Ex 37 10, Ex 43 0.3; for Exploration time mean ± S.E.M, Familiar object / Exploration time mean ± S.E.M, Novel object: choice trial T2, p.o.; for Inference: p.o.
# Description: The cognition enhancing properties of compounds of this invention were estimated by using this model.
# Male Wistar rats (230-280 grams) were used as experimental animals. Four animals were housed in each cage. Animals were kept on 20% food deprivation before one day and given water ad libitum throughout the experiment and maintained on a 12 hours light/dark cycle. Also the rats were habituated to individual arenas for 1 hour in the absence of any objects.
# One group of 12 rats received vehicle (1 mL/Kg) orally and another set of animals received compound of the formula (I) either orally or i.p., before one hour of the familiar (T1) and choice trial (T2).
# The experiment was carried out in a 50×50×50 cm open field made up of acrylic. In the familiarization phase, (T1), the rats were placed individually in the open field for 3 minutes, in which two identical objects (plastic bottles, 12.5 cm height×5.5 cm diameter) covered in yellow masking tape alone (a1 and a2) were positioned in two adjacent corners, 10 cms from the walls. After 24 hours of the (T1) trial for long-term memory test, the same rats were placed in the same arena as they were placed in T1 trial. Choice phase (T2) rats were allowed to explore the open field for 3 minutes in presence of one familiar object (a3) and one novel object (b) (Amber color glass bottle, 12 cm high and 5 cm in diameter). Familiar objects presented similar textures, colors and sizes. During the T1 and T2 trial, explorations of each object (defined as sniffing, licking, chewing or having moving vibrissae whilst directing the nose towards the object at a distance of less than 1 cm) were recorded separately by stopwatch. Sitting on an object was not regarded as exploratory activity, however, it was rarely observed.
# T1 is the total time spent exploring the familiar objects (a1+a2).
# T2 is the total time spent exploring the familiar object and novel object (a3+b).
# The object recognition test was performed as described by Behaviour Brain Research, (1988), 31, 47-59.
# sAPPα = experiment: Estimation of mice brain cortical sAPPα levels (ELISA); assay type: in vivo; details: s.c., 60 minutes post treatment
# Description: The control group of mice received sterile water for injection subcutaneously (s.c.). […] Mice were sacrificed 60 minutes after the drug injection by cervical dislocation, the brains were quickly isolated and the cortex was dissected at −20° C. The cortex was immediately kept on a dry ice and weighed before being stored at −80° C. until Enzyme-linked immunosorbent assay (ELISA) was performed. • 1. Brain tissues were thawed and Tris Buffer Saline containing protease inhibitors (TBS, 4 times by volume) added (0.8 mL/200 mg tissues). • 2. Brain tissue samples were homogenized using glass-Teflon homogenizer at 10 strokes. The resulting homogenates were centrifuged at 15,000 rpm at 4° C. for 60 minutes. • 3. The supernatant was discarded and to the precipitate, 4 times volume (0.8 mL/200 mg tissues) of TBS was added. Again homogenized followed by centrifugation at 15,000 rpm 4° C. for 30 minutes. • 4. From the above centrifuged mixture the supernatant was discarded and 10 times volume of 6M Guanidine-HCl in 50 mM Tris buffer pH: 7.6 (500 μL/50 mg tissues) was added. The resulting solution was sonicated for 5 seconds, 4 times. • 5. Resulting mixture was incubated at the RT for 30 minutes, followed by centrifugation at 15,000 rpm, 4° C. for 30 minutes. From this 5 μL of supernatant solution was taken and diluted with 155 μL of EIA buffer (dilution factor 32). Measurement of sAPPα by ELISA Kit: To investigate the role of an acute treatment of test compound on sAPPα levels, we measured the expression of this protein in homogenates from the cortex of treated and untreated mice by ELISA assay. The entire procedure was followed as described in the ELISA kit manual (Mouse/Rat sAPPα ELISA, Catalog Number: JP27415, […], Hamburg, Germany). Statistical analyses were performed using the Graph Pad Prism (Version 4). Data are Mean±SD of sAPPa levels expressed as percentage of control values (mice which received water for injection). Values were compared between the different groups by using unpaired t test. The significance level was set at *p<0.05; […]; ***<0.001.
# [4] = test system: Scopolamine Induced amnesia; experiment: Radial arm maze; assay type: in vivo; details: p.o., rats
# Source text: The cognition enhancing properties of compounds of formula (I) of this invention were estimated by using this model.
# Radial arm maze consists of a central hub of 45 cm diameter. Each arm was of dimension 42.5×15×24 cm. The maze was elevated to a height of 1 m above the ground. The animals were placed on a restricted diet until they reached approximately 85% of their free feeding weight. During this diet restriction period animals were habituated to the novel feed (pellets). Once the rats reached approximately 85% of their free feeding weight rats were habituated to the maze on the 1st and 2nd day. […] Animals were randomized on day 2. On the subsequent days the treatment was given as per the allotment: Each animal was introduced into the maze individually for a period of 10 minutes. The arms were baited only once and the animal had to learn the rule that repeated arm entries would not be rewarded. The trial ended once the rat had visited 16 arms or 10 minutes were over or all the pellets were eaten. The arm entries were recorded using the software. Once the trial was over the rat was removed and the maze was cleaned using soap water.
compound,measurement,setting,value
"Nc1c(Cl)cc(C(=O)NCC2C3CN(CC4CCOCC4)CC23)c2ncccc12.O=C(O)C(O)C(O)C(=O)O (stereo not drawn) [Example 2, 5-Amino-6-chloro-N-{[3-(tetrahydro-2H-pyran-4-ylmethyl)-3-azabicyclo[3.1.0]hex-6-yl]methyl}quinoline-8-carboxamide L(+)-tartarate]",Emax,[1],59%
same,EC50,[1],0.5 nM
same,AUC(0-t),[2]; 1 mg/kg intravenous (bolus),284 ± 10 ng·h/mL
same,Cmax,[2]; 1 mg/kg intravenous (bolus),252 ± 30 ng/mL
same,Tmax,[2]; 1 mg/kg intravenous (bolus),4.8 min
same,half-life,[2]; 1 mg/kg intravenous (bolus),96 ± 6 min
same,AUC(0-t),[2]; 3 mg/kg oral (gavage),531 ± 51 ng·h/mL
same,Cmax,[2]; 3 mg/kg oral (gavage),140 ± 24 ng/mL
same,Tmax,[2]; 3 mg/kg oral (gavage),25.2 ± 8.4 min
same,half-life,[2]; 3 mg/kg oral (gavage),72 ± 6 min
same,bioavailability,[2],62 ± 6%
same,Kp,[3],1.31 ± 0.1
same,"Exploration time mean ± S.E.M, Familiar object",Male Wistar rats,7.46 ± 1.30 s
same,"Exploration time mean ± S.E.M, Novel object",Male Wistar rats,15.75 ± 1.65 s
same,Inference,Male Wistar rats,Active
"Nc1c(Cl)cc(C(=O)NCC2CCN(CC3(O)CCOCC3)CC2)c2ncccc12.O=C(O)C(O)C(O)C(=O)O [Example 23, 5-Amino-6-chloro-N-{[1-(4-hydroxytetrahydro-2H-pyran-4-ylmethyl)-4-piperidinyl]methyl}quinoline-8-carboxamide L(+)-tartarate]",Emax,[1],67%
same,increase in the mice brain cortical sAPPα levels,sAPPα; 0.3 mg/kg,42%
same,increase in the mice brain cortical sAPPα levels,sAPPα; 1.0 mg/kg,33%
same,"Exploration time mean ± S.E.M, Familiar object",Male Wistar rats,8.80 ± 1.46 s
same,"Exploration time mean ± S.E.M, Novel object",Male Wistar rats,16.80 ± 2.45 s
same,Inference,Male Wistar rats,Active
same,Reversal of Scopolamine Induced amnesia - Effective dose range,[4],"0.01-0.1 mg/kg, p.o."
"Nc1c(Cl)cc(C(=O)NCC2(F)CCN(CC3(O)CCOCC3)CC2)c2ncccc12.O=C(O)C(O)C(O)C(=O)O [Example 27, 5-Amino-6-chloro-N-{[4-fluoro-1-(4-hydroxytetrahydro-2H-pyran-4-ylmethyl)-4-piperidinyl]methyl}quinoline-8-carboxamide L(+)-tartarate]",Emax,[1],63%
same,EC50,[1],0.6 nM
same,AUC(0-t),[2]; 1 mg/kg intravenous (bolus),401 ± 15 ng·h/mL
same,Cmax,[2]; 1 mg/kg intravenous (bolus),448 ± 41 ng/mL
same,Tmax,[2]; 1 mg/kg intravenous (bolus),4.8 min
same,half-life,[2]; 1 mg/kg intravenous (bolus),102 ± 24 min
same,AUC(0-t),[2]; 3 mg/kg oral (gavage),236 ± 72 ng·h/mL
same,Cmax,[2]; 3 mg/kg oral (gavage),173 ± 48 ng/mL
same,Tmax,[2]; 3 mg/kg oral (gavage),15 min
same,bioavailability,[2],20 ± 6%
same,Kp,[3],0.4 ± 0.02
"CC(C)(O)CN1CCC(F)(CNC(=O)c2cc(Cl)c(N)c3cccnc23)CC1.O=C(O)C(O)C(O)C(=O)O [Example 37, 5-Amino-6-chloro-N-{[4-fluoro-1-(2-hydroxy-2-methylpropyl)-4-piperidinyl]methyl} quinoline-8-carboxamide L(+)-tartarate]",Emax,[1],62%
same,EC50,[1],2.2 nM
same,AUC(0-t),[2]; 1 mg/kg intravenous (bolus),274 ± 25 ng·h/mL
same,Cmax,[2]; 1 mg/kg intravenous (bolus),324 ± 52 ng/mL
same,Tmax,[2]; 1 mg/kg intravenous (bolus),4.8 min
same,half-life,[2]; 1 mg/kg intravenous (bolus),114 ± 6 min
same,AUC(0-t),[2]; 3 mg/kg oral (gavage),200 ± 49 ng·h/mL
same,Cmax,[2]; 3 mg/kg oral (gavage),137 ± 37 ng/mL
same,Tmax,[2]; 3 mg/kg oral (gavage),15 min
same,half-life,[2]; 3 mg/kg oral (gavage),78 ± 18 min
same,bioavailability,[2],24 ± 6%
same,Kp,[3],0.61 ± 0.07
same,"Exploration time mean ± S.E.M, Familiar object",Male Wistar rats,8.45 ± 1.65 s
same,"Exploration time mean ± S.E.M, Novel object",Male Wistar rats,17.81 ± 1.42 s
same,Inference,Male Wistar rats,Active
"CC(C)(O)CN1CCC(F)(CNC(=O)c2cc(F)c(N)c3cccnc23)CC1.O=C(O)C(O)C(O)C(=O)O [Example 43, 5-Amino-6-fluoro-N-{[4-fluoro-1-(2-hydroxy-2-methylpropyl)-4-piperidinyl]methyl} quinoline-8-carboxamide L(+)-tartarate]",Emax,[1],43%
same,EC50,[1],2.9 nM
same,AUC(0-t),[2]; 1 mg/kg intravenous (bolus),362 ± 83 ng·h/mL
same,Cmax,[2]; 1 mg/kg intravenous (bolus),306 ± 47 ng/mL
same,Tmax,[2]; 1 mg/kg intravenous (bolus),4.8 min
same,half-life,[2]; 1 mg/kg intravenous (bolus),114 ± 54 min
same,AUC(0-t),[2]; 3 mg/kg oral (gavage),373 ± 39 ng·h/mL
same,Cmax,[2]; 3 mg/kg oral (gavage),231 ± 40 ng/mL
same,Tmax,[2]; 3 mg/kg oral (gavage),19.8 ± 8.4 min
same,half-life,[2]; 3 mg/kg oral (gavage),204 ± 132 min
same,bioavailability,[2],34 ± 4%
same,Kp,[3],0.93 ± 0.26
same,"Exploration time mean ± S.E.M, Familiar object",Male Wistar rats,9.30 ± 0.93 s
same,"Exploration time mean ± S.E.M, Novel object",Male Wistar rats,16.09 ± 2.63 s
same,Inference,Male Wistar rats,Active
